Source: paper PMC3315146 (The Journal of General Physiology, 2012)
Where a chain is given by its changes, count along the chain named.

Assays:
[1] = system: KcsA Y82C; conditions: reverse direction unchanged, ref Heginbotham et al., 1999; cited from earlier work
[2] = target: T1, Kcv L70C (Paramecium bursaria Chlorella virus 1, UniProt Q84568, L70C); assay: MTSET cysteine modification, single-channel conductance of L70C; type: biochemical, chlorella virus PBCV-1; conditions: for conductance reduced by: L70C, 0.2 mM cis MTSET for 5 min
T1 sequence (Q84568 1-94 L70C): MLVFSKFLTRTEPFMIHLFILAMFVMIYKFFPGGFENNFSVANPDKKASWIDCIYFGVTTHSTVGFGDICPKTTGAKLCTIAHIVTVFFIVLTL

[3] = target: T2, wt-Kcv (Paramecium bursaria Chlorella virus 1, UniProt Q84568); assay: MTSET control, single-channel conductance of wt-Kcv; type: biochemical, chlorella virus PBCV-1; conditions: 0.2 mM cis MTSET
T2 sequence (Q84568 1-94): T1 sequence (Q84568 1-94 L70C) with C70L

Question: With `C[N+](C)(C)CCSS(C)(=O)=O` [MTSET, (2-(trimethylammonium)ethyl) methanethiosulfonate] as the compound, how does the “reduction of cis to trans current” value [1] read?
Answer: 60%

Question: What about the “conductance reduced by” value ([2]; 60 mV) of the same compound?
Answer: 30%

Question: And the “conductance reduced by” value ([2]; −60 mV)?
Answer: 78%

Question: What about the effect on conductance ([2]; MTSET added in the trans solution (not depicted)) of the same compound?
Answer: not found to reduce the conductance

Question: And the conductance change [3]?
Answer: did not observe the conductance change
